# Data taken from publication PMC11571215, “Optimization of Antiproliferative Properties of Triimine Copper(II) Complexes” (Journal of Medicinal Chemistry, 2024).
# What was measured:
# [1] = Stability in solution by UV-vis spectrophotometry; format: physicochemical; details: c = 25 μM, spectra every 4 h for 72 h
# Method: The stability of Cu1a-d and Cu2a-d was assessed using a spectrophotometric method. Absorption spectra of the Cu(II) complexes were collected every 4 h for 72 h in DMSO and phosphate-buffered saline (PBS) solutions (c = 25 μM) (see Figure S6 and Table S9 in ESI). The diluted solutions in a water-based medium were prepared from concentrated (50 mM) stock solutions in DMSO. […] In contrast, Cu(II) complexes with dtpy-based ligands (Cu2a–d) decomposed within a few minutes in DMSO, showing UV–vis spectra almost overlapping with those of the free ligands (Figure S7). […] In PBS, compounds Cu2a–d tended to aggregate rapidly due to the release of the organic ligand, which is insoluble in water.
# Infrared spectra were performed with the KBr technique on a Nicolet iS5 FT-IR spectrophotometer in the range of 4000–400 cm^–1. Elemental analyses (C, H, N) were recorded on a Perkin–Elemer CHN–2400 analyzer. HR-ESI-MS analyses were performed on a maXis Impact Q-TOF mass spectrometer (Bruker Daltonics) or a Xevo G2 Q-TOF mass spectrometer (Waters Corporation, USA), both with an ESI ion source operating in positive-ion mode. Samples were diluted in LC-MS grade acetonitrile. The accurate mass and composition for the molecular ion adducts were calculated using Data Analysis 4.1 software (Bruker, Germany) or MassLynx software (Waters). […] The eluted compounds were monitored in the range 190–400 nm. […]
# [2] = tested on: chicken embryo chorioallantoic membrane; assay: Ex-ovo CAM assay: in vivo toxicity and angiogenic potential; details: IC50 concentrations; for angiogenic potential (tertiary veins): 24 h, normalized to DMSO; for in vivo toxicity (embryo death): chicken embryo
# From the text: The ex-ovo Chorioallantoic Membrane (CAM) assay has become a preclinical model of choice for assessing the cytotoxicity of Cu(II) complexes and in vivo angiogenesis.[38] The CAM is an extraembryonic membrane formed by mesodermal layers, highly vascularized despite being compromised, making it ideal for studying angiogenesis and antiangiogenesis in response to biomolecules and drugs.[97] […] In these assays, highly vascularized regions surrounded by O-rings on the chorioallantoic membrane of chicken embryos were studied. […] Eight embryos were used as biological replicates. Images were taken immediately after exposure to the complexes and control (0 h) and 24 h later. The values were normalized to the number of tertiary veins after exposure to the DMSO control and are represented in Figures 19 and S25.
# To assess the angiogenic potential of the copper complexes, an ex-ovo CAM (chick chorioallantoic membrane) in vivo model using chicken eggs was performed. Fertilized eggs were opened, and the embryos and blood vessels were stabilized for 24 h in an incubator at 37 °C in perforated individual weighing boxes. After incubation, 4 silicone O-rings were placed on areas with a high number of blood vessels. […] The area limited by each O-ring was photographed immediately after the addition of the complexes and after 24 and 48 h of incubation at 37 °C. The images were captured with a digital USB microscope camera (Opti-Tekscope OT-V1). Image analysis was performed using ImageJ software.
SMILES,stability/solubility in PBS [1],angiogenic potential (tertiary veins) [2],in vivo toxicity (embryo death) [2]
[Cl][Cu-3]12([Cl])[n+]3ccccc3-c3cc(-c4cccc5ccccc45)cc([n+]31)-c1cccc[n+]12 [Cu1a],no solubility issues were observed,did not show significant pro- or antiangiogenic properties,do not show in vivo toxicity in a chicken embryo
[Cl][Cu-3]12([Cl])[n+]3ccccc3-c3cc(-c4ccc5ccccc5c4)cc([n+]31)-c1cccc[n+]12 [Cu1b],no solubility issues were observed,did not show significant pro- or antiangiogenic properties,do not show in vivo toxicity in a chicken embryo
